# In article PMC6368403, “Identification of a bilirubin receptor that may mediate a component of cholestatic itch” (eLife, 2019):
# Values joined by “and” are separate entries in the source; they are usually repeats but may differ in a detail not shown here. Identical values can stand only once. Square brackets hold non-standard residues; d marks the D form. Peptide text beside a SMILES is read from it. * marks the point of attachment. Boc = CC(C)(C)OC(=O)*; OBn = c1ccc(CO*)cc1; For = O=C*
# Key:
# [1] = mouse, in vivo, 1 mg/kg
# [2] = cited from earlier work
# mice = test: Plasma injection assay: scratching bouts after injection of mouse or human plasma; assay type: in vivo; settings: plasma treated with FeCl3 (vs NT), one value per animal
# Text: Plasma from patients suffering from hyperbilirubinemia, specifically cholestasis, was isolated under a protocol approved by the Institutional Review Board at the Johns Hopkins University School of Medicine (Study number: IRB00154650). […] Both cholestatic and control plasma were isolated under protocols approved by the Institutional Review Board at the Johns Hopkins University School of Medicine (Cholestasis Study number: IRB00154650; Control study number: NA_00013177, the Johns Hopkins Department of Dermatology Patient Database and Tissue Bank). Whole blood was collected into PAXgene tubes (PreAnalytiX 761115) and centrifuged for 5 min at 300 g. Plasma was then collected, aliquoted, and stored at −20°C until experimentation. […] All applicable behavioral tests were performed and analysed with the experimenter blind to genotype. […] There were no significant differences in itch between male and female mice. […] On the day before the experiment, animals were placed in the test chamber for 30 min before being subjected to a series of three mock injections with 5 min break periods in between. On the day of the experiment, animals were first allowed to acclimatize to the test chamber for 10 min before injection. […] A bout of scratching was defined as a continuous scratching movement with either hindpaw directed at the area of the injection site. In the cheek injection model, a wipe was defined as a single forepaw stroking the site of the injection. Use of both forepaws on the face or cheek was considered as grooming behavior. […] For H1R block, 30 mg/kg of cetirizine HCl (pH 7.4) was given intraperitoneally thirty minutes prior to injection of bilirubin. Licking behavior was quantified in seconds and identified as the licking of the toes or footpad of the hind paw site of injection that was neither preceded nor followed by licking of any other portion of the body.
# [3] = target: MRGPRA1, GFP-tagged (mouse) (UniProt Q91WW5)
# Chain of MRGPRA1, GFP-tagged (mouse) (Q91WW5 whole entry): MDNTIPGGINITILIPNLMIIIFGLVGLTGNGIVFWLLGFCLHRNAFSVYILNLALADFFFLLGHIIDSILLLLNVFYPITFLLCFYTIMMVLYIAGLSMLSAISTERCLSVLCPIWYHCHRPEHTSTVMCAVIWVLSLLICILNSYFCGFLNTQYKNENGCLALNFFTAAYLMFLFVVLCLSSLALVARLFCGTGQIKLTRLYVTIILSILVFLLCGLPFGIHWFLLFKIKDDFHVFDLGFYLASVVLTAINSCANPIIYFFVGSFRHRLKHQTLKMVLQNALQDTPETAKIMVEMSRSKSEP
molecule,measurement,setting,value
"CC(C)(C)OC(=O)N[C@@H](CCC(N)=O)C(=O)N[C@H](Cc1cn(C=O)c2ccccc12)C(=O)N[C@@H](Cc1ccccc1)C(=O)OCc1ccccc1 [QWF, BOC-GLN-D-(FORMYL)TRP-PHE-BENZYLESTER] (Boc-Gln-[dW](For)-Phe-OBn)","Plasma levels of total bilirubin, AST, ALT, ALP",[1],"did not change plasma levels of total bilirubin, AST, ALT, or ALP"
same,t1/2 in plasma,[2],1.17 h
[Cl][Fe]([Cl])[Cl] [FeCl3],Scratching bouts after injection of plasma,mice; NT values equal cholestasis WT c1 of sheet Fig 7 - CD,75 and 132 and 54 and 111 and 173 and 58 and 34
same,Scratching bouts after injection of plasma,"mice; NT/FeCl3 pair, NT values equal cholestasis WT c7 of sheet Fig 7 - CD",117 and 53 and 60 and 54 and 67
same,Scratching bouts after injection of plasma,"mice; NT/FeCl3 pair, plasma source not given",45 and 53 and 51 and 41 and 34
QWF (BOC-GLN-D-(FORMYL)TRP-PHE-BENZYLESTER) (peptide),inhibition of the bilirubin-induced Ca2+ signal in MRGPRA1-expressing HEK cells (200 µM bilirubin kept in competition with varied doses of QWF),[3],2.9 µM
